According to patent EP4635500A1, “THERAPEUTIC AGENT FOR BACTERIAL INFECTION” (Sumitomo Pharma Co., Ltd., priority 2022, dated 2024):
Converted amounts (≈) assume the structure as drawn. Read-outs that look alike come from different tables or passages of the source.

Test system: Enterobacterales
Assay: MIC, broth microdilution, CDC/FDA Antibiotic Resistance Isolate Bank (Example 7, Tables 8, 11, 12)
Assay type: cell-based

C[C@@H](O)[C@H]1C(=O)N2C(C(=O)O)=C(S[C@@H]3CN[C@H](C(=O)N(C)C)C3)[C@H](C)[C@H]12 [MEPM, meropenem]
MIC (Klebsiella oxytoca, KUB No. 5644, AR Bank# 147, KPC-3, read-out: MIC): 0.25 µg/mL (≈ 0.652 µM)
MIC (Klebsiella oxytoca, KUB No. 5771, AR Bank# 375, no carbapenemase genes, read-out: MIC): ≤ 0.06 µg/mL
MIC (Klebsiella oxytoca, KUB No. 5776, AR Bank# 380, no carbapenemase genes, read-out: MIC): 2 µg/mL (≈ 5.22 µM)
MIC (Klebsiella ozaenae, KUB No. 5548, AR Bank # 51, OXA-181, read-out: MIC): 1 µg/mL (≈ 2.61 µM)
MIC (Klebsiella ozaenae, KUB No. 5593, AR Bank # 96, KPC-3, read-out: MIC): 32 µg/mL (≈ 83.4 µM)
MIC (Klebsiella pnemnonice, KUB No. 5784, AR Bank# 438, KPC-3, read-out: MIC): > 32 µg/mL
MIC (Klebsiella pneumoniae, KUB No. 5531, AR Bank # 34, IMP-4, read-out: MIC): 0.25 µg/mL (≈ 0.652 µM)
MIC (Klebsiella pneumoniae, KUB No. 5536, AR Bank # 39, OXA-181, read-out: MIC): 1 µg/mL (≈ 2.61 µM)
MIC (Klebsiella pneumoniae, KUB No. 5537, AR Bank # 40, VIM-27, read-out: MIC): > 32 µg/mL
MIC (Klebsiella pneumoniae, KUB No. 5538, AR Bank # 41, NDM-1, read-out: MIC): 8 µg/mL (≈ 20.9 µM)
MIC (Klebsiella pneumoniae, KUB No. 5540, AR Bank # 43, no carbapenemase gene, read-out: MIC): 0.5 µg/mL (≈ 1.3 µM)
MIC (Klebsiella pneumoniae, KUB No. 5541, AR Bank # 44, no carbapenemase gene, read-out: MIC): 2 µg/mL (≈ 5.22 µM)
MIC (Klebsiella pneumoniae, KUB No. 5543, AR Bank # 46, VIM-27, read-out: MIC): 32 µg/mL (≈ 83.4 µM)
MIC (Klebsiella pneumoniae, KUB No. 5544, AR Bank # 47, no carbapenemase gene, read-out: MIC): 4 µg/mL (≈ 10.4 µM)
MIC (Klebsiella pneumoniae, KUB No. 5546, AR Bank # 49, NDM-1, read-out: MIC): 32 µg/mL (≈ 83.4 µM)
MIC (Klebsiella pneumoniae, KUB No. 5563, AR Bank # 66, OXA-232, read-out: MIC): 8 µg/mL (≈ 20.9 µM)
MIC (Klebsiella pneumoniae, KUB No. 5565, AR Bank # 68, OXA-232, NDM-1, read-out: MIC): > 32 µg/mL
MIC (Klebsiella pneumoniae, KUB No. 5573, AR Bank # 76, VIM-1, read-out: MIC): 2 µg/mL (≈ 5.22 µM)
MIC (Klebsiella pneumoniae, KUB No. 5576, AR Bank # 79, no carbapenemase gene, read-out: MIC): 4 µg/mL (≈ 10.4 µM)
MIC (Klebsiella pneumoniae, KUB No. 5577, AR Bank # 80, IMP-4, read-out: MIC): 4 µg/mL (≈ 10.4 µM)
MIC (Klebsiella pneumoniae, KUB No. 5584, AR Bank # 87, no carbapenemase gene, read-out: MIC): ≤ 0.06 µg/mL
MIC (Klebsiella pneumoniae, KUB No. 5594, AR Bank # 97, KPC-3, read-out: MIC): 32 µg/mL (≈ 83.4 µM)
MIC (Klebsiella pneumoniae, KUB No. 5595, AR Bank # 98, KPC-2, read-out: MIC): 8 µg/mL (≈ 20.9 µM)
MIC (Klebsiella pneumoniae, KUB No. 5603, AR Bank # 106, NDM-1, read-out: MIC): > 32 µg/mL
MIC (Klebsiella pneumoniae, KUB No. 5604, AR Bank # 107, no carbapenemase gene, read-out: MIC): 16 µg/mL (≈ 41.7 µM)
MIC (Klebsiella pneumoniae, KUB No. 5606, AR Bank # 109, no carbapenemase gene, read-out: MIC): 8 µg/mL (≈ 20.9 µM)
MIC (Klebsiella pneumoniae, KUB No. 5609, AR Bank # 112, KPC-3, read-out: MIC): 4 µg/mL (≈ 10.4 µM)
MIC (Klebsiella pneumoniae, KUB No. 5610, AR Bank # 113, KPC-3, read-out: MIC): > 32 µg/mL
MIC (Klebsiella pneumoniae, KUB No. 5612, AR Bank # 115, KPC-3, read-out: MIC): 8 µg/mL (≈ 20.9 µM)
MIC (Klebsiella pneumoniae, KUB No. 5614, AR Bank # 117, KPC-3, read-out: MIC): 16 µg/mL (≈ 41.7 µM)
MIC (Klebsiella pneumoniae, KUB No. 5617, AR Bank # 120, KPC-2, read-out: MIC): 16 µg/mL (≈ 41.7 µM)
MIC (Klebsiella pneumoniae, KUB No. 5622, AR Bank # 125, KPC-3, read-out: MIC): 16 µg/mL (≈ 41.7 µM)
MIC (Klebsiella pneumoniae, KUB No. 5623, AR Bank # 126, KPC-2, read-out: MIC): 4 µg/mL (≈ 10.4 µM)
MIC (Klebsiella pneumoniae, KUB No. 5626, AR Bank # 129, KPC-3, read-out: MIC): 4 µg/mL (≈ 10.4 µM)
MIC (Klebsiella pneumoniae, KUB No. 5632, AR Bank# 135, VIM-1, read-out: MIC): 0.5 µg/mL (≈ 1.3 µM)
MIC (Klebsiella pneumoniae, KUB No. 5635, AR Bank# 138, NDM-7, read-out: MIC): > 32 µg/mL
MIC (Klebsiella pneumoniae, KUB No. 5636, AR Bank# 139, NDM-1, read-out: MIC): 0.12 µg/mL (≈ 0.313 µM)
MIC (Klebsiella pneumoniae, KUB No. 5637, AR Bank# 140, OXA-181, read-out: MIC): 1 µg/mL (≈ 2.61 µM)
MIC (Klebsiella pneumoniae, KUB No. 5639, AR Bank# 142, OXA-181, read-out: MIC): 1 µg/mL (≈ 2.61 µM)
MIC (Klebsiella pneumoniae, KUB No. 5640, AR Bank# 143, NDM-L, read-out: MIC): > 32 µg/mL
MIC (Klebsiella pneumoniae, KUB No. 5642, AR Bank# 145, NDM-1, read-out: MIC): 8 µg/mL (≈ 20.9 µM)
MIC (Klebsiella pneumoniae, KUB No. 5643, AR Bank# 146, NDM-1, read-out: MIC): 8 µg/mL (≈ 20.9 µM)
MIC (Klebsiella pneumoniae, KUB No. 5645, AR Bank# 148, NDM-1, read-out: MIC): 8 µg/mL (≈ 20.9 µM)
MIC (Klebsiella pneumoniae, KUB No. 5650, AR Bank# 153, OXA-232, NDM-1, read-out: MIC): > 32 µg/mL
MIC (Klebsiella pneumoniae, KUB No. 5655, AR Bank# 158, NDM-1, read-out: MIC): 8 µg/mL (≈ 20.9 µM)
MIC (Klebsiella pneumoniae, KUB No. 5657, AR Bank# 160, OXA-48, read-out: MIC): 8 µg/mL (≈ 20.9 µM)
MIC (Klebsiella pneumoniae, KUB No. 5757, AR Bank# 361, KPC-2, read-out: MIC): 8 µg/mL (≈ 20.9 µM)
MIC (Klebsiella pneumoniae, KUB No. 5758, AR Bank# 362, KPC-2, read-out: MIC): 8 µg/mL (≈ 20.9 µM)
MIC (Klebsiella pneumoniae, KUB No. 5759, AR Bank# 363, KPC-2, read-out: MIC): 4 µg/mL (≈ 10.4 µM)
MIC (Klebsiella pneumoniae, KUB No. 5760, AR Bank# 364, no carbapenemase genes, read-out: MIC): 1 µg/mL (≈ 2.61 µM)
MIC (Klebsiella pneumoniae, KUB No. 5772, AR Bank# 376, no carbapenemase genes, read-out: MIC): 0.12 µg/mL (≈ 0.313 µM)
MIC (Klebsiella pneumoniae, KUB No. 5797, AR Bank# 453, KPC-3, read-out: MIC): > 32 µg/mL
MIC (Klebsiella pneumoniae, KUB No. 5809, AR Bank# 504, OXA-48, read-out: MIC): 4 µg/mL (≈ 10.4 µM)
MIC (Klebsiella pneumoniae, KUB No. 5810, AR Bank# 505, NDM-1, read-out: MIC): 16 µg/mL (≈ 41.7 µM)
MIC (Klebsiella pneumoniae, KUB No. 5811, AR Bank# 506, NDM-1, read-out: MIC): 16 µg/mL (≈ 41.7 µM)
MIC (Klebsiella pneumoniae, KUB No. 5812, AR Bank# 507, OXA-232, NDM-1, read-out: MIC): > 32 µg/mL
MIC (Klebsiella pneumoniae, KUB No. 5827, AR Bank# 522, KPC-2, read-out: MIC): 8 µg/mL (≈ 20.9 µM)
MIC (Klebsiella pneumoniae, KUB No. 5828, AR Bank# 523, KPC-2 (row continued in Table 8-7), read-out: MIC): 16 µg/mL (≈ 41.7 µM)
MIC (Klebsiella pneumoniae, KUB No. 5829, AR Bank# 524, KPC-3, read-out: MIC): 16 µg/mL (≈ 41.7 µM)
MIC (Klebsiella pneumoniae, KUB No. 5830, AR Bank# 525, KPC-11, read-out: MIC): 8 µg/mL (≈ 20.9 µM)
MIC (Klebsiella pneumonice, KUB No. 5649, AR Bank# 152, NDM-1, read-out: MIC): 8 µg/mL (≈ 20.9 µM)
MIC (Kluyvera ascorbata): 2 µg/mL (≈ 5.22 µM)
MIC (Morganella morganii, KUB No. 5630, AR Bank# 133, KPC-2, read-out: MIC): 1 µg/mL (≈ 2.61 µM)
MIC (Morganella morganii, KUB No. 5824, AR Bank# 519, no carbapenemase genes, read-out: MIC): 2 µg/mL (≈ 5.22 µM)
MIC (Proteus mirabilis, KUB No. 5556, AR Bank # 59, no carbapenemase gene, read-out: MIC): 0.12 µg/mL (≈ 0.313 µM)
MIC (Proteus mirabilis, KUB No. 5652, AR Bank# 155, KPC-6, read-out: MIC): 1 µg/mL (≈ 2.61 µM)
MIC (Proteus mirabilis, KUB No. 5653, AR Bank# 156, KPC-2, read-out: MIC): 0.12 µg/mL (≈ 0.313 µM)
MIC (Proteus mirabilis, KUB No. 5656, AR Bank# 159, NDM-1, read-out: MIC): 2 µg/mL (≈ 5.22 µM)
MIC (Proteus mirabilis, KUB No. 5773, AR Bank# 377, KPC-3, read-out: MIC): 1 µg/mL (≈ 2.61 µM)
MIC (Proteus mirabilis, KUB No. 5775, AR Bank# 379, no carbapenemase genes, read-out: MIC): ≤ 0.06 µg/mL
MIC (Providencia rettgeri): 8 µg/mL (≈ 20.9 µM)
MIC (Salmonella enterica): 16 µg/mL (≈ 41.7 µM)
MIC (Serratia marcescens, KUB No. 5588, AR Bank # 91, SME-3, read-out: MIC): 16 µg/mL (≈ 41.7 µM)
MIC (Serratia marcescens, KUB No. 5596, AR Bank # 99, SME-3, read-out: MIC): 16 µg/mL (≈ 41.7 µM)
MIC (Serratia marcescens, KUB No. 5618, AR Bank # 121, SME-3, read-out: MIC): 16 µg/mL (≈ 41.7 µM)
MIC (Serratia marcescens, KUB No. 5619, AR Bank # 122, SME-3, read-out: MIC): 32 µg/mL (≈ 83.4 µM)
MIC (Serratia marcescens, KUB No. 5620, AR Bank # 123, SME-3, read-out: MIC): 2 µg/mL (≈ 5.22 µM)
MIC (Serratia marcescens, KUB No. 5621, AR Bank # 124, SME-3, read-out: MIC): 32 µg/mL (≈ 83.4 µM)
MIC (Serratia marcescens, KUB No. 5627, AR Bank # 130, SME-3, read-out: MIC): 8 µg/mL (≈ 20.9 µM)
MIC (Serratia marcescens, KUB No. 5628, AR Bank # 131, SME-3, read-out: MIC): 0.5 µg/mL (≈ 1.3 µM)
MIC (Serratia marcescens, KUB No. 5822, AR Bank# 517, KPC-3, read-out: MIC): 8 µg/mL (≈ 20.9 µM)
MIC (Serratia marcescens, KUB No. 5825, AR Bank# 520, no carbapenemase genes, read-out: MIC): ≤ 0.06 µg/mL
MIC (Serratia marcescens, KUB No. 5826, AR Bank# 521, no carbapenemase genes, read-out: MIC): ≤ 0.06 µg/mL
